# Test results from patent US9145377B2, “G-quadruplex stabilising agent” (University College London, priority 2011, dated 2015).
# Experiments:
# [1] = test system: HIF-1α; assay: Western blotting for HIF-1α protein in RCC4 / RCC4VHL cells; format: cell-based, human
# Source text: (§1) A498 human renal, 786-0 human renal, MCF-7 human breast, Mia-Pa-Ca human pancreatic, Panc-1 human pancreatic, and PC-3 human prostate cancer cells were obtained from American Type Culture Collection (Rockville, Md.). Human RCC4 and RCC4/VHL cells were obtained from Professor P. Maxwell (University College London, UK). RCC4 cells lack pVHL therefore express constitutively high levels of HIF-1α. These cells were stably transfected with a wild-type pVHL gene, as previously described. All cells were grown in humidified 95% air, 5% CO2 at 37° C. in Dulbecco's modified Eagle's medium (DMEM), RPMI or MEM medium supplemented with 10% fetal bovine serum (FBS) and 2 mM L-Glutamine according to advice from ATCC (all reagents were obtained from Gibco, Invitrogen, UK). HIF-1α and HIF-2α antibodies were obtained from BD Transduction Labs, AKT antibody was obtained from Cell Signalling Biotechnology, and lamin NC, actin, HIF-1β, HSP-90, and Raf-1 antibodies were from Santa Cruz Biotechnology.
# (§2) Culture flasks were incubated for various times at 37° C. in humidified air, 5% CO2 (normoxia) or 1% O2, 5% CO2, 94% N2 (hypoxia) using an InVivo Hypoxia Workstation 400 with a Ruskin hypoxic gas mixer (Biotrace International). After incubation, cells were washed twice with cold PBS equilibrated with the same gas mixture. In some studies, medium was removed at the end of incubation and stored at […] for measurement of vascular endothelial growth factor (VEGF) levels.
# (§3) Western blotting was performed as described previously. Blots were quantified using ImageQuant software (Molecular Dynamics). Nuclear and cytoplasmic extracts were prepared using NE-PER Nuclear and Cytoplasmic Extraction Reagents (Pierce Biotechnology).
# Cells were then lysed and Western blotting was performed probing for HIF-1α, HIF-2α, HIF-1β, or lamin NC (as a loading control).
# [2] = test system: VEGF; assay: VEGF measurement in cell culture medium by ELISA; format: cell-based, human; conditions: RCC4 cells, CL67 5×IC50 or dose indicated, 4 h or time indicated
# Description: as §2
# [3] = test system: HIF-1β; assay: Western blotting for HIF-1β protein; format: cell-based, human; conditions: RCC4 or 786-0 cells, 4 h
# Source text: as §1
# (§4) Culture flasks were incubated for various times at 37° C. in humidified air, 5% CO2 (normoxia) or 1% O2, 5% CO2, 94% N2 (hypoxia) using an InVivo Hypoxia Workstation 400 with a Ruskin hypoxic gas mixer (Biotrace International). […]
# (§5) Western blotting was performed as described previously. Blots were quantified using ImageQuant software (Molecular Dynamics). […]
# [4] = test system: HSP-90; assay: Western blotting for HSP-90 in RCC4 and RCC4VHL cells; format: cell-based, human; conditions: CL67 5×IC50, normoxia (20% oxygen)
# Source text: as §1, §3
# (§6) Cells were then lysed and Western blotting was performed. Probing for HSP-90, Raf-1, AKT and actin (as a loading control).
# [5] = test system: AKT; assay: Western blotting for AKT in RCC4 and RCC4VHL cells; format: cell-based, human; conditions: CL67 5×IC50, normoxia (20% oxygen)
# Source text: as §1, §3, §6
# [6] = test system: renal carcinoma cells; assay: Growth inhibition, sulforhodamine B (SRB) assay, 96 h exposure; format: cell-based, human; conditions: normoxia (20% oxygen)
# Source text: as §1
# [7] = test system: Raf-1; assay: Western blotting for Raf-1 in RCC4 and RCC4VHL cells; format: cell-based, human; conditions: CL67 5×IC50, normoxia (20% oxygen)
# Source text: as §1, §3, §6
# [8] = test system: HIF-1α mRNA; assay: Reverse transcriptase PCR (qRT-PCR) of HIF-1α transcripts in RCC4 cells; format: cell-based, human; conditions: 4 h, normoxia
# Description: Total RNA was isolated from approximately 10^7 cells using the RNeasy kit (Qiagen, Crawley, UK) according to the manufacturer's protocol. HIF-1α transcripts were quantified using two-step, quantitative real time PCR (qRTPCR). First-strand cDNA synthesis was performed for each sample with a Protoscript M-MuLV Taq RT-PCR kit (New England Biolabs, MA, USA) using 1 μg total RNA and oligo-dT primers. qPCR was performed using Stratagene Brilliant III SYBR Green master mix in a Stratagene MX-3000P instrument (Agilent, Tex., USA) according to the manufacturer's instructions using 2 ng input cDNA and primers at 300 nM. […] Samples were normalised to β-actin. Differences in PCR efficiency were normalised using relative standard curves of cDNA pooled from all samples. P-values were determined for 2000 randomisations.
# Cells were then lysed and RNA was prepared using a Qiagen RNeasy kit. RT PCR was then performed to determine relative levels of HIF-1α mRNA in each sample.
# [9] = Solubility limit in aqueous media (dose ranging, sterile dH2O); format: physicochemical; conditions: dissolved in sterile dH2O, intra-peritoneal dose ranging in CD1 mice
# Description: A dose range assay was performed in female CD1 mice, with an initial mean weight of 25 g (Harlan UK Ltd,).
# [10] = test system: HIF-1 transactivation; assay: Luciferase reporter assay (hypoxia response element, HRE) in RCC4 cells; format: cell-based, human; conditions: normoxia or hypoxia (1% oxygen), 4 h
# Description: A pGL3 firefly luciferase reporter plasmid containing the phosphoglycerate kinase hypoxia-responsive element was supplied by Professor P. Maxwell (University College London, UK) [1]. The empty pGL3 control plasmid and the pRL-CMV Renilla luciferase plasmids were obtained from Promega. […] Firefly and Renilla luciferase activities were measured using the Dual Luciferase Reporter Assay System (Promega) according to the manufacturer's instructions.
# In FIG. 6(A) RCC4 cells were co-transfected with either a vector expressing luciferase under the control of multiple copies of the hypoxia response element (HRE; kindly donated by G. Mellillo, NCI) or an empty vector control (pGL3) in addition to a vector expressing renilla luciferase (to control for transfection efficiency). […] Luciferase activity was then measured using the Promega Dual Luciferase assay Kit and results are expressed as a percentage of the activity of untreated, normoxic cells.
# [11] = test system: HIF-2α; assay: Western blotting for HIF-2α protein in 786-0 cells; format: cell-based, human; conditions: hypoxia (1% oxygen), 4 h dose course
# Source text: as §1, §4, §5
smiles,measurement,setting,value
"CCN(CC)CC(=O)Nc1cccc(-n2cc(-c3ccc4ccc(-c5cn(-c6cccc(NC(=O)CN(CC)CC)c6)nn5)cc4c3)nn2)c1 [CL67, N,N′-((4,4′-(Naphthalene-2,7-diyl)bis(1H-1,2,3-triazole-4,1-diyl))bis(3,1-phenylene))bis(2-(diethylamino)acetamide)]",HIF-1α protein (Western blot) in RCC4VHL cells,"[1]; RCC4VHL cells (stably transfected with pVHL), 0, 1, 5 or 10×IC50, normoxia or hypoxia (1% oxygen)",inhibited
same,HIF-1α protein (Western blot) in RCC4 cells (lacking pVHL),"[1]; RCC4 cells, 0, 1, 5 or 10×IC50, normoxia (20% oxygen) or hypoxia (1% oxygen)",inhibited
same,HIF-1α protein level (Western blot),"[1]; RCC4 cells, normoxia, 4 h dose course, time course at 5×IC50",inhibited
same,VEGF levels in medium (ELISA),[2],inhibited
same,HIF-1β protein level (Western blot),[3],did not affect
same,expression of HSP90 (Western blot),[4],No differences
same,expression of AKT (Western blot),[5],No differences
same,"sensitivity of renal cancer cells to inhibition of cell growth compared to other cancer cell lines (breast, pancreatic, prostate)",[6],enhanced sensitivity
same,expression of Raf-1 (Western blot),[7],No differences
same,relative expression of HIF-1α mRNA compared to untreated control cells (RT PCR),[8],inhibits formation of HIF-1α mRNA
same,solubility limit of the drug in aqueous media,[9],10 mg/kg
same,HIF-1 transactivation (HRE luciferase activity),[10],inhibited
same,HIF-2α protein level (Western blot),[11],inhibited
same,melting point,,97 to 99 °C
